Experimental data from paper PMC6359675, “Functionalization of the Chalcone Scaffold for the Discovery of Novel Lead Compounds Targeting Fungal Infections” (Molecules, 2019).
Read-outs that look alike come from different tables or passages of the source.

What was measured:
C. albicans ATCC 10231 = assay: In vitro susceptibility testing, microdilution broth (EUCAST), C. albicans control strain; format: cell-based, Candida albicans; conditions: for inhibition at 100 µM: ATCC10231, 24 h; for antifungal activity against C. albicans growth, in words: screen at 100 μM; for IC50: mean and 95% confidence interval
Method: The in vitro antifungal activity of the chalcones was evaluated by a microdilution broth method in accordance with the guidelines provided by the EUCAST Edef 7.3 [22]. Briefly, all strains were cultured on Sabauraud dextrose, then inocula, prepared at 0.5 McFarland, were diluted 1:20 in RPMI-1640 medium (Gibco®, ThermoFisher Scientific Inc., Waltham, MA, USA), containing glucose 2%, 0.3% levo-glutamine buffered to pH 7.0 with 0.165 M 3-(N-morpholino)propanesulfonic acid (MOPS) to yield 1-5 × 10^5 cells/mL. A total of 100 µL of the yeast suspension was inoculated in a 96-well microplate and incubated with 100 µL of serially 2-fold dilution of the compound in the range 200–6.25 µM. The following controls were included: yeast suspensions incubated in RPMI-1640 culture medium (positive growth control), or supplemented with dilutions of DMSO, or fluconazole (Sigma-Aldrich, St. Louis, MO, USA) as a commercial drug. To check the background turbidity of reagents and the sterility of the procedure, dilutions of each compound were incubated in RPMI-1640 culture medium, without yeast inoculum. The inoculated plate was incubated at 37 °C for 24 h, and subsequently the optical density at 630 nm was measured by the Multiskan Ascent microplate reader (Thermo Fisher Scientific Inc.). The effectiveness of the compounds was expressed as percent inhibition relative to the positive growth control when the inhibition […] the 50% at 100 µM. The IC50 value was determined by interpolation of the dose–response curves generated by plotting the percentages of growth inhibition, relative to the drug-free control (set to 100% of growth), as a function of the tested concentrations (on a logarithm scale). Statistical analysis was carried out by the nonlinear regression method using GraphPad Prism version 5.0 for Windows (GraphPad Software, San Diego, CA, USA). All assays were performed in triplicate and at least two independent experiments were carried out.

[1] = Cytotoxicity test on Vero cells (WST8/CCK-8 cell viability); format: cell-based, African green monkey; conditions: African green monkey, Vero cells (ATCC CCL-81), Vero cells, mean and 95% confidence interval
Method: African green monkey kidney cells (Vero ATCC CCL-81) were cultured in Eagle’s Minimal Essential Medium (MEM) (Sigma-Aldrich), supplemented with 10% fetal bovine serum (FBS) (Carlo Erba Reagents, Milan, Italy), 100 U/mL penicillin, and 100 µg/mL streptomycin at 37 °C with 5% CO2. For experiments, cells were seeded into 96-well plates at 10^4 cells/well, and incubated at 37 °C for 24 h. Following washes with PBS, cell monolayer was incubated with 100 µL of serially 2-fold dilution of the compound in the range 200–6.25 µM. Both untreated cells and cells incubated with medium containing solvent dilutions were included in each experiment as controls.
The cell viability was assessed by a WST8-based assay according to the manufacturer’s instructions (CCK-8, Cell Counting Kit-8, Dojindo Molecular Technologies, Rockville, MD, USA). After 72 h of incubation, culture medium was removed from each well, the monolayer was washed with PBS, and 100 µL of fresh medium containing 10 µL of CCK-8 solution were added. Following a 2 h at 37 °C, the absorbance was measured at 450/630 nm; data were calculated as the percentage of the cell viability relative to the untreated controls.

[2] = Candida albicans, C. albicans ATCC 10231
[3] = Candida albicans, ATCC10231, C. albicans ATCC 10231, read-out: IC50
[4] = Candida albicans, ATCC10231, C. albicans ATCC 10231, read-out: IC50 [μg/mL]
[5] = C. albicans ATCC 10231, read-out: IC50

melting point	IC50 (C. albicans ATCC 10231; [3])	IC50 (C. albicans ATCC 10231; [4])	IC50 (C. albicans ATCC 10231; [5])	Structure (SMILES)	inhibition at 100 µM (C. albicans ATCC 10231; [2])	antifungal activity against C. albicans growth, in words (C. albicans ATCC 10231; C. albicans ATCC 10231)	CC50 at 72 h ([1]; read-out: CC50)	CC50 at 72 h ([1]; read-out: CC50 [μg/mL])
–	–	–	–	O=C(/C=C/c1ccccc1F)c1cc(Cl)ccc1O [Compound 2, (E)-1-(5-Chloro-2-hydroxyphenyl)-3-(2-fluorophenyl)prop-2-en-1-one]	35.8 ± 1.1%	–	–	–
–	–	–	–	CN(C)c1ccc(/C=C/C(=O)c2cc(Cl)ccc2O)cc1 [Compound 6, (E)-1-(5-chloro-2-hydroxyphenyl)-3-(4-(dimethylamino)phenyl)prop-2-en-1-one]	< 1%	inactive	–	–
–	–	–	–	O=C(/C=C/c1ccc(F)cc1)c1cc(F)ccc1O [Compound 8, (E)-1-(5-Fluoro-2-hydroxyphenyl)-3-(4-fluorophenyl)prop-2-en-1-one]	< 1%	–	–	–
–	–	–	–	CN(C)c1ccc(/C=C/C(=O)c2cc(F)ccc2O)cc1 [Compound 9, (E)-3-(4-(Dimethylamino)phenyl)-1-(5-fluoro-2-hydroxyphenyl)prop-2-en-1-one]	38.5 ± 2.9%	–	–	–
–	–	–	–	C#CCOc1ccc(C(=O)/C=C/c2ccc(F)cc2)c(OC)c1 [Compound 10, (E)-3-(4-fluorophenyl)-1-(2-methoxy-4-(prop-2-yn-1-yloxy)phenyl)prop-2-en-1-one]	23.3 ± 9.6%	–	–	–
174 to 175 °C	–	–	–	C#CCOc1ccc(C(=O)/C=C/c2ccc(Cl)cc2Cl)c(OC)c1 [Compound 11, (E)-3-(2,4-dichlorophenyl)-1-(2-methoxy-4-(prop-2-yn-1-yloxy)phenyl)prop-2-en-1-one]	9.8 ± 6.7%	inactive	–	–
–	30.7 µM	9 µg/mL	–	C#CCOc1ccc(C(=O)/C=C/c2cccnc2)c(OC)c1 [Compound 12]	> 99%	–	13.6 µM	4 µg/mL
–	8.1 µM	2.4 µg/mL	–	C#CCOc1ccc(C(=O)/C=C/c2ccncc2)c(OC)c1 [Compound 13]	> 99%	–	7.3 µM	2.1 µg/mL
–	–	–	–	C#CCOc1ccc(C(=O)/C=C/c2ccc(N(C)C)cc2)c(OC)c1 [Compound 15, (E)-3-(4-(dimethylamino)phenyl)-1-(2-methoxy-4-(prop-2-yn-1-yloxy)phenyl)prop-2-en-1-one]	< 1%	inactive	–	–
–	10.8 µM	3.2 µg/mL	–	C#CCOc1ccc(C(=O)/C=C/c2cccnc2)c(O)c1 [Compound 16]	91.9 ± 8.2%	–	17.8 µM	5.2 µg/mL
–	–	–	–	C#CCOc1ccc(C(=O)/C=C/c2ccc(N(C)C)cc2)c(O)c1 [Compound 17, (E)-3-(4-(dimethylamino)phenyl)-1-(2-hydroxy-4-(prop-2-yn-1-yloxy)phenyl)prop-2-en-1-one]	11 ± 3.9%	inactive	–	–
–	–	–	–	COc1cc(OCC=C(C)C)ccc1C(=O)/C=C/c1ccc(F)cc1 [Compound 18]	34.1 ± 7.5%	–	–	–
191 to 193 °C	–	–	–	CC(C)=CCOc1ccc(C(=O)/C=C/c2ccc(Cl)cc2Cl)c(O)c1 [Compound 19, (E)-3-(2,4-dichlorophenyl)-1-(2-hydroxy-4-((3-methylbut-2-en-1-yl)oxy)phenyl)prop-2-en-1-one]	5.9 ± 5.7%	inactive	–	–
–	12.6 µM	3.7 µg/mL	–	CC(C)=CCOc1ccc(C(=O)/C=C/c2ccncc2)c(O)c1 [Compound 21]	96.5 ± 1.4%	–	14.8 µM	4.3 µg/mL
–	–	–	–	C#CCOc1ccc(C(=O)/C=C/c2ccc(F)cc2)c(OCC#C)c1 [Compound 22]	< 1%	inactive	–	–
166 to 168 °C	–	–	–	C#CCOc1ccc(C(=O)/C=C/c2ccc(Cl)cc2Cl)c(OCC#C)c1 [Compound 23, (E)-1-(2,4-bis(prop-2-yn-1-yloxy)phenyl)-3-(2,4-dichlorophenyl)prop-2-en-1-one]	4.6 ± 13.8%	inactive	–	–
–	26.3 µM	12.8 µg/mL	43.8 µM	C#CCOc1ccc(C(=O)/C=C/c2cccnc2)c(OCC#C)c1 [Compound 24]	72 ± 9.8%	–	13 µM	3.8 µg/mL
–	43.8 µM	7.7 µg/mL	26.3 µM	C#CCOc1ccc(C(=O)/C=C/c2ccncc2)c(OCC#C)c1 [Compound 25]	81.3 ± 17%	–	9.1 µM	2.7 µg/mL
–	36.8 µM	10.8 µg/mL	–	C#CCOc1ccc(C(=O)/C=C/c2ccc([N+](=O)[O-])cc2)c(OCC#C)c1 [Compound 26]	63.9 ± 3.4%	–	5.1 µM	1.5 µg/mL
–	–	–	–	C#CCOc1ccc(C(=O)/C=C/c2ccc(N(C)C)cc2)c(OCC#C)c1 [Compound 27, (E)-1-(2,4-bis(prop-2-yn-1-yloxy)phenyl)-3-(4-(dimethylamino)phenyl)prop-2-en-1-one]	< 1%	inactive	–	–
–	–	–	–	COc1cc(O)ccc1C(=O)/C=C/c1ccc(F)cc1 [Compound 29, (E)-3-(4-Fluorophenyl)-1-(4-hydroxy-2-methoxyphenyl)prop-2-en-1-one]	17.8 ± 4.1%	poor inhibition	–	–
–	–	–	–	COc1cc(OCc2cn(CCO)nn2)ccc1C(=O)/C=C/c1ccc(F)cc1 [Compound 30, (E)-3-(4-fluorophenyl)-1-(4-((1-(2-hydroxyethyl)-1H-1,2,3-triazol-4-yl)methoxy)-2-methoxyphenyl)prop-2-en-1-one]	9.5 ± 4.8%	inactive	–	–
–	12 µM	3.5 µg/mL	–	O=C(/C=C/c1ccc(F)cc1)c1ccc(OCCO)cc1 [Compound 31, (E)-3-(4-fluorophenyl)-1-(4-(2-hydroxyethoxy)phenyl)prop-2-en-1-one]	97.3 ± 0.5%	–	8.3 µM	2.4 µg/mL
87 to 88 °C	–	–	–	CC(C)=CCOc1ccc(C(=O)/C=C/c2cccnc2)cc1 [Compound 32, (E)-1-(4-((3-methylbut-2-en-1-yl)oxy)phenyl)-3-(pyridin-3-yl)prop-2-en-1-one]	< 1%	devoid of any effect	–	–
91 to 93 °C	–	–	–	CC(C)=CCOc1ccc(C(=O)/C=C/c2ccncc2)cc1 [Compound 33, (E)-1-(4-((3-methylbut-2-en-1-yl)oxy)phenyl)-3-(pyridin-4-yl)prop-2-en-1-one]	< 1%	devoid of any effect	–	–
–	–	–	–	CC(C)=CCOc1ccc(C(=O)/C=C/c2ccc(N(C)C)cc2)cc1 [Compound 35, (E)-3-(4-(dimethylamino)phenyl)-1-(4-((3-methylbut-2-en-1-yl)oxy)phenyl)prop-2-en-1-one]	13.9 ± 3.6%	inactive	–	–
–	–	–	–	C#CCOc1ccc(C(=O)/C=C/c2ccc(N(C)C)cc2)cc1 [Compound 39, (E)-3-(4-(dimethylamino)phenyl)-1-(4-(prop-2-yn-1-yloxy)phenyl)prop-2-en-1-one]	< 1%	inactive	–	–
–	–	–	–	C#CCOc1ccc2c(c1)O/C(=C\c1cccnc1)C2=O [Compound 40, (Z)-6-(prop-2-yn-1-yloxy)-2-(pyridin-3-ylmethylene)benzofuran-3(2H)-one]	< 1%	loss in activity	–	–
